# Patent publication US7067656B2, “Sulfamoyl compounds and agricultural and horticultural fungicides” (Nissan Chemical Industries, Ltd., priority 1997, dated 2006)
row,melting point,SMILES
1,120 to 122 °C,"Cc1c(Cl)c2ccccc2n1S(=O)(=O)c1ncn(S(=O)(=O)N(C)C)n1 [1-33(a), 1-(N,N-dimethylsulfamoyl)-3-(2-methyl-3-chloroindol-1-yl)sulfonyl-1,2,4-triazole]"
2,164 to 165 °C,"CN(C)S(=O)(=O)n1cnc(S(=O)(=O)n2nc(Cl)c3ccccc32)n1 [7-5(a), 1-(N,N-dimethylsulfamoyl)-3-(3-chloroindazol-1-yl)sulfonyl-1,2,4-triazole]"
3,121 to 122 °C,"CN(C)S(=O)(=O)n1cnc(C(=O)c2ccc(C(F)(F)F)cc2)n1 [11-19(a), 1-dimethylsulfamoyl-3-(4-trifluoromethylbenzoyl)-1,2,4-triazole]"
4,125 to 128 °C,"Cc1c(Cl)c(-c2ccccc2)nn1S(=O)(=O)c1ncn(S(=O)(=O)N(C)C)n1 [8-11(a), 1-(N,N-dimethylsulfamoyl)-3-(3-phenyl-4-chloro-5-methylpyrazol-1-yl)sulfonyl-1,2,4-triazole]"
